Test results reported in US10906863B1, “Hydroxytyrosol 4-methoxycinnamic acid ester with antibacterial activity and a method of preparing the same” (SHAANXI UNIVERSITY OF SCIENCE AND TECHNOLOGY, priority 2020, dated 2021).
Values after ≈ are worked out from the molar mass of the structure shown.

Tests used:
Type in all cases: cell-based
[1] = tested on: methicillin-resistant Staphylococcus aureus MRSA 18-222; test: MIC by microbroth dilution, MRSA 18-222; details: for Minimum Bacteriostatic Concentration: strain MRSA 18-222, microbroth dilution, 37° C., 20-22 hours
Description: (§1) The minimal inhibitory concentration (MIC) of the compound as determined by a microbroth dilution method with gentamicin, cefazolin sodium and ceftriaxone sodium as positive control.
(§2) The experimental strains included methicillin-resistant Gram-positive bacteria: methicillin-resistant Staphylococcus aureus MRSA 18-222, 18-575; multiple drug-resistant […] bacteria: vancomycin-resistant enterococci VRE 18-80,18-94, multidrug-resistant Pseudomonas aeruginosa MDR-PA 18-1774,18-202, carbapenem-resistant Acinetobacter baumannii CR-AB 18-183,18-560. All the experimental strains were donated by Huashan Hospital affiliated to Fudan University (Institute of antibiotics, Fudan University) and used after routine identification.
(§3) Preparation of MHB medium: 20.0 g MHB medium was added to 1 L distilled water, boiled until completely dissolved, packed in conical bottles and sterilized at 121° C. for 15 min.
(§4) The experimental strain was cultured to the logarithmic growth phase: under aseptic condition, the experimental strain was inoculated into 100 mL MHB medium and incubated in a constant temperature and humidity incubator at 37° C. for 20-22 hours.
(§5) Preparation of storage solution: weigh the sample to be tested, dissolve it with 1% DMSO solution, prepare a storage solution with a concentration of 2560 μg/mL, weigh a positive reference substance, dissolve it with aseptic distilled water, and configure a storage solution with a concentration of 2560 μg/mL.
(§6) Under aseptic condition, the experimental strains cultured to logarithmic growth phase were adjusted to 0.5 MCF turbidity standard with MHB medium and […], and the bacterial suspension with concentration of 10^6 CFU/mL was prepared for standby.
(§7) Dilution of storage solution and inoculation of experimental strain: under aseptic condition, the storage solution was diluted to 256 μg/mL solution. Take a sterile 96-well plate, add 200 μL MHB medium to the 12th well, and add 100 μL MHB medium to each well. Add 100 μL of positive control solution to the first well, mix well, and suck 100 μL from it and discard. Add 100 μL of the compound sample solution to the second well, mix well, and then pipette 100 μL to the third well. After mixing, pipette 100 μL to the fourth well, and dilute to the 11th well in this way. Finally, 100 μL was pipetted from the 11th well and discarded. The 12th hole was the growth control without drugs. So far, the concentration of the positive reference substance is 128 μg/mL, the concentrations of the sample solution are 128, 64, 16, 8, 4, 2, 1, 0.5, 0.25 μg/mL respectively. Then, 10 μL of the prepared bacterial suspension is added to each well, so that the final concentration of the bacterial liquid in each well is 5×10^5 CFU/mL.
(§8) Incubation: Cover the 96-well plate inoculated with the experimental strains, and incubate in a constant temperature and humidity box at 37° C. for 20-22 hours.
(§9) In FIGS. 1-10, the twelve wells represent twelve groups, from left to right, positive, 128 μg/mL, 64 μg/mL, 32 μg/mL, 16 μg/mL, 8 μg/mL, 4 μg/mL, 2 μg/mL, 1 μg/mL, 0.25 μg/mL, 0.0625 μg/mL, Negative.

[2] = tested on: methicillin-resistant Staphylococcus aureus MRSA 18-575; test: MIC by microbroth dilution, MRSA 18-575; details: strain MRSA 18-575, 37° C., 20-22 hours
Description: as §1, §2, §3, §4, §5, §6, §7, §8, §9

[3] = tested on: vancomycin-resistant enterococci VRE 18-80; test: MIC by microbroth dilution, VRE 18-80; details: strain VRE 18-80, 37° C., 20-22 hours
Description: as §1, §2, §3, §4, §5, §6, §7, §8

[4] = tested on: vancomycin-resistant enterococci VRE 18-94; test: MIC by microbroth dilution, VRE 18-94; details: strain VRE 18-94, 37° C., 20-22 hours
Description: as §1, §2, §3, §4, §5, §6, §7, §8

[5] = tested on: multidrug-resistant Pseudomonas aeruginosa MDR-PA 18-174; test: MIC by microbroth dilution, MDR-PA 18-174; details: for Minimum Bacteriostatic Concentration: strain MDR-PA 18-174, microbroth dilution, 37° C., 20-22 hours
Description: as §1, §2, §3, §4, §5, §6, §7, §8, §9

[6] = tested on: multidrug-resistant Pseudomonas aeruginosa MDR-PA 18-202; test: MIC by microbroth dilution, MDR-PA 18-202; details: strain MDR-PA 18-202, 37° C., 20-22 hours
Description: as §1, §2, §3, §4, §5, §6, §7, §8

[7] = tested on: carbapenem-resistant Acinetobacter baumannii CR-AB 18-183; test: MIC by microbroth dilution, CR-AB 18-183; details: strain CR-AB 18-183, 37° C., 20-22 hours
Description: as §1, §2, §3, §4, §5, §6, §7, §8

[8] = tested on: carbapenem-resistant Acinetobacter baumannii CR-AB 18-560; test: MIC by microbroth dilution, CR-AB 18-560; details: strain CR-AB 18-560, 37° C., 20-22 hours
Description: as §1, §2, §3, §4, §5, §6, §7, §8

[9] = tested on: drug-resistant bacteria; test: Antibacterial activity test, whole panel of drug-resistant strains; details: summary over the tested drug-resistant strains
Description: as §1, §2, §3, §4, §5, §6
Dilution of storage solution and inoculation of experimental strain: under aseptic condition, the storage solution was diluted to 256 μg/mL solution. Take a sterile 96-well plate, add 200 μL MHB medium to the 12th well, and add 100 μL MHB medium to each well. Add 100 μL of positive control solution to the first well, mix well, and suck 100 μL from it and discard. […]

## CO/N=C(\C(=O)N[C@@H]1C(=O)N2C(C(=O)O)=C(CSc3nc(=O)c(=O)[nH]n3C)CS[C@H]12)c1csc(N)n1 [Ceftriaxone sodium, ceftriaxone sodium]
[1]
  Minimum Bacteriostatic Concentration: >128 µg/mL
[2]
  Minimum Bacteriostatic Concentration: >128 µg/mL
[3]
  Minimum Bacteriostatic Concentration: 8 µg/mL
[4]
  Minimum Bacteriostatic Concentration: >128 µg/mL
[5]
  Minimum Bacteriostatic Concentration: 128 µg/mL
[6]
  Minimum Bacteriostatic Concentration: 16 µg/mL
[7]
  Minimum Bacteriostatic Concentration: >128 µg/mL
[8]
  Minimum Bacteriostatic Concentration: >128 µg/mL

## Cc1nnc(SCC2=C(C(=O)O)N3C(=O)[C@@H](NC(=O)Cn4cnnn4)[C@H]3SC2)s1 [Cefazolin sodium, cefazolin sodium]
[1]
  Minimum Bacteriostatic Concentration: >128 µg/mL
[2]
  Minimum Bacteriostatic Concentration: >128 µg/mL
[3]
  Minimum Bacteriostatic Concentration: 32 µg/mL
[4]
  Minimum Bacteriostatic Concentration: >128 µg/mL
[5]
  Minimum Bacteriostatic Concentration: 8 µg/mL
[6]
  Minimum Bacteriostatic Concentration: 128 µg/mL
[7]
  Minimum Bacteriostatic Concentration: >128 µg/mL
[8]
  Minimum Bacteriostatic Concentration: >128 µg/mL

## gentamicin
[1]
  Minimum Bacteriostatic Concentration: 128 µg/mL
[2]
  Minimum Bacteriostatic Concentration: 2 µg/mL
[3]
  Minimum Bacteriostatic Concentration: 0.0625 µg/mL
[4]
  Minimum Bacteriostatic Concentration: >128 µg/mL
[5]
  Minimum Bacteriostatic Concentration: 0.0625 µg/mL
[6]
  Minimum Bacteriostatic Concentration: 0.0625 µg/mL
[7]
  Minimum Bacteriostatic Concentration: >128 µg/mL
[8]
  Minimum Bacteriostatic Concentration: >128 µg/mL

## COc1ccc(/C=C/C(=O)OCCc2ccc(O)c(O)c2)cc1 [(E)-3,4-dihydroxyphenethyl 3-(4-methoxyphenyl)acrylate]
[1]; Staphylococcus aureus, drug-resistant MRSA, strain not named in the text (value matches 18-222)
  MIC: 4 µg/mL (≈ 12.7 µM)
[1]
  Minimum Bacteriostatic Concentration: 4 µg/mL
[2]
  Minimum Bacteriostatic Concentration: 32 µg/mL
[3]
  Minimum Bacteriostatic Concentration: >128 µg/mL
[4]
  Minimum Bacteriostatic Concentration: >128 µg/mL
[5]; Pseudomonas aeruginosa, MDR-PA, strain not named in the text (value matches 18-174)
  MIC: 8 µg/mL (≈ 25.5 µM)
[5]
  Minimum Bacteriostatic Concentration: 8 µg/mL
[6]
  Minimum Bacteriostatic Concentration: >128 µg/mL
[7]
  Minimum Bacteriostatic Concentration: >128 µg/mL
[8]
  Minimum Bacteriostatic Concentration: >128 µg/mL
[9]
  inhibitory effect on drug-resistant bacteria (result in words): excellent antibacterial activity

## OCCc1ccc(O)c(O)c1 [Hydroxytyrosol]
[1]
  Minimum Bacteriostatic Concentration: >128 µg/mL
[2]
  Minimum Bacteriostatic Concentration: >128 µg/mL
[3]
  Minimum Bacteriostatic Concentration: >128 µg/mL
[4]
  Minimum Bacteriostatic Concentration: >128 µg/mL
[5]
  Minimum Bacteriostatic Concentration: >128 µg/mL
[6]
  Minimum Bacteriostatic Concentration: >128 µg/mL
[7]
  Minimum Bacteriostatic Concentration: >128 µg/mL
[8]
  Minimum Bacteriostatic Concentration: >128 µg/mL
[9]
  inhibitory effect on drug-resistant bacteria (result in words): no inhibitory effect

## COc1ccc(C=CC(=O)O)cc1 [4-methoxycinnamic acid]
[1]
  Minimum Bacteriostatic Concentration: >128 µg/mL
[2]
  Minimum Bacteriostatic Concentration: >128 µg/mL
[3]
  Minimum Bacteriostatic Concentration: >128 µg/mL
[4]
  Minimum Bacteriostatic Concentration: >128 µg/mL
[5]
  Minimum Bacteriostatic Concentration: >128 µg/mL
[6]
  Minimum Bacteriostatic Concentration: >128 µg/mL
[7]
  Minimum Bacteriostatic Concentration: >128 µg/mL
[8]
  Minimum Bacteriostatic Concentration: >128 µg/mL
[9]
  inhibitory effect on drug-resistant bacteria (result in words): no inhibitory effect
